Publication PMC10974795 (2024)

Tested on: Apt-WO-06 (AWO-06) (DNA, aptamer) GTGAGTTTACATGGGGTCCTATAGGCGAACAATCG
Assay: graphene oxide fluorescence recovery
Conditions: buffer composition not stated; aptamer 0.5-30 nM titrated; displaced from graphene oxide; apparent

Kd: 0.02816 µM
Compound: CC1COc2c(N3CCN(C)CC3)c(F)cc3c(=O)c(C(=O)O)cn1c23 (stereo not shown)
